Data taken from patent publication US10208033B2, “β-carboline, dihydro-β-carboline and tetrahydro-β-carboline alkaloid derivatives and preparation methods same and use in aspects of preventing and treating plant viruses, fungicides and insecticides” (NANKAI UNIVERSITY, priority 2013, dated 2019).
Counter-ions that a name gives are not always drawn.

Experiments:
[1] = test system: tobacco mosaic virus (TMV); assay: Anti-TMV in vitro effect (half-leaf soaking); type: cell-based, tobacco mosaic virus (host Nicotiana tabacum L.cv.Xanthi NN)
[2] = test system: tobacco mosaic virus (TMV); assay: Anti-TMV in vivo inactivation; set-up: species or system tobacco mosaic virus (host Nicotiana tabacum L.cv.Xanthi NN)
[3] = test system: tobacco mosaic virus (TMV); assay: Anti-TMV in vivo therapeutic effect; set-up: species or system tobacco mosaic virus (host Nicotiana tabacum L.cv.Xanthi NN)
[4] = test system: tobacco mosaic virus (TMV); assay: Anti-TMV in vivo protective effect; set-up: species or system tobacco mosaic virus (host Nicotiana tabacum L.cv.Xanthi NN)
cucumber fusarium wilt = assay: Fungicidal (bactericidal) activity in vitro, PDA colony diameter; type: cell-based; conditions: 50 mg/kg
Cercospora arachidicola = assay: as above; type: cell-based; conditions: 50 mg/kg
Macrophoma kawatsukai = assay: as above; type: cell-based; conditions: 50 mg/kg
Alternaria solani = assay: as above; type: cell-based; conditions: 50 mg/kg
Fusarium graminearumt = assay: microbe, parasite or virus in culture; type: cell-based; conditions: 50 mg/kg
potato late blight = assay: microbe, parasite or virus in culture; type: cell-based
Sclerotinia scleotiorum = assay: Fungicidal (bactericidal) activity in vitro, PDA colony diameter; type: cell-based; conditions: 50 mg/kg
Botrytis cinerea = assay: as above; type: cell-based; conditions: 50 mg/kg
Rhizoctonia solani = assay: as above; type: cell-based; conditions: 50 mg/kg
Phytophthora capsici = assay: as above; type: cell-based; conditions: 50 mg/kg
Fusarium fujikuroi = assay: as above; type: cell-based; conditions: 50 mg/kg
Rhizoctonia cereali = assay: as above; type: cell-based; conditions: 50 mg/kg
Bipolaria maydis = assay: organism not typed; type: cell-based; conditions: 50 mg/kg
[5] = test system: Colletotrichum orbiculare; assay: Fungicidal (bactericidal) activity in vitro, PDA colony diameter; type: cell-based; conditions: 50 mg/kg
armyworms = type: in vivo; conditions: concentration 600 mg/kg
cotton bollworms = assay: whole plant or invertebrate; conditions: concentration 600 mg/kg
Protocol: Experimental method of cotton bollworms: feed and drug mixing method: measure 3 mL of prepared solution and add it to about 27 g of newly prepared feed, thereby obtaining needed concentration through dilution by 10 times.

mosquito larvae = assay: whole plant or invertebrate; conditions: concentration 10 mg/kg, 24 h
Method in brief: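 Compound dissolved in acetone (or other solvent) to a 1000 ppm stock and diluted in water to 5 ppm. Ten Culex pipiens pallens larvae at the start of the fourth instar, laboratory-reared, added per beaker; solvent-only aqueous control.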

corn borers = conditions: concentration 600 mg/kg

| SMILES | Relative inhibition rate (%) In vitro activity ([1]; treatment dose 100 μg/mL) | Relative inhibition rate (%) In vitro activity ([1]; treatment dose 500 μg/mL) | Relative inhibition rate (%) In vivo inactivation ([2]; treatment dose 100 μg/mL) | Relative inhibition rate (%) In vivo inactivation ([2]; treatment dose 500 μg/mL) | Relative inhibition rate (%) In vivo therapy ([3]; treatment dose 100 μg/mL) | Relative inhibition rate (%) In vivo therapy ([3]; treatment dose 500 μg/mL) | Relative inhibition rate (%) In vivo protection ([4]; treatment dose 100 μg/mL) | Relative inhibition rate (%) In vivo protection ([4]; treatment dose 500 μg/mL) | Bactericidal activity (%) Cucumber fusarium wilt (cucumber fusarium wilt) | Bactericidal activity (%) Cercospora arachidicola (Cercospora arachidicola) | Bactericidal activity (%) Macrophoma kawatsukai (Macrophoma kawatsukai) | Bactericidal activity (%) Alternaria solani (Alternaria solani) | Bactericidal activity (%) Fusarium graminearumt (Fusarium graminearumt) | Bactericidal activity (%) potato late blight (potato late blight) | Bactericidal activity (%) Sclerotinia scleotiorum (Sclerotinia scleotiorum) | Bactericidal activity (%) Botrytis cinerea (Botrytis cinerea) | Bactericidal activity (%) Rhizoctonia solani (Rhizoctonia solani) | Bactericidal activity (%) Phytophthora capsici (Phytophthora capsici) | Bactericidal activity (%) Fusarium fujikuroi (Fusarium fujikuroi) | Bactericidal activity (%) Rhizoctonia cereali (Rhizoctonia cereali) | further results |
| --- | --- | --- | --- | --- | --- | --- | --- | --- | --- | --- | --- | --- | --- | --- | --- | --- | --- | --- | --- | --- | --- |
| CCOC(=O)[C@@H]1Cc2c([nH]c3ccccc23)[C@H](CC)N1 [Ib-10, (1S, 3S)-1-ethyl-2,3,4,9-tetrahydropyridino [3,4-b] indol-3-ethyl formate] | 0% | 34.1% | 12.6% | 46.4% | 11.4% | 38.1% | 10.7% | 36.6% | 23.8% | 21.4% | 64.7% | 55.6% | 35.7% | 30.0% | 56.0% | 40.9% | 21.4% | 45.5% | 35.7% | 65.6% | Bactericidal activity (%) Bipolaria maydis (Bipolaria maydis): 31.6%; Bactericidal activity (%) Colletotrichum orbiculare [5]: 42.9%; Armyworm Mortality (%) (armyworms): 30%; Cotton bollworm Mortality (%) (cotton bollworms): 15%; Mosquito larvae Mortality (%) (mosquito larvae): 60%; Corn borer Mortality (%) (corn borers): 25% |
| C[C@@H]1N[C@H](C(=O)NN=Cc2ncc[nH]2)Cc2c1[nH]c1ccccc21 [Ic-21, (1S, 3S)—N′-(imidazole-2-methylene)-1-methyl-2,3,4,9-tetrahydropyridino [3,4-b] indol-3-formylhydrazine] | 0% | 42.4% | 21.3% | 49.6% | 12.6% | 45.3% | 18.5% | 48.1% | 34.6% | 47.1% | 97.2% | 15.0% | 27.6% | 24.0% | 35.3% | 36.4% | 15.8% | 18.4% | 28.6% | 64.7% | Bactericidal activity (%) Bipolaria maydis (Bipolaria maydis): 12.0%; Bactericidal activity (%) Colletotrichum orbiculare [5]: 25.9%; Armyworm Mortality (%) (armyworms): 40%; Cotton bollworm Mortality (%) (cotton bollworms): 45%; Mosquito larvae Mortality (%) (mosquito larvae): 85%; Corn borer Mortality (%) (corn borers): 35% |
| C[C@@H]1N[C@H](C(=O)NN=CC(C)(C)C)Cc2c1[nH]c1ccccc21 [Ic-26, (1S, 3S)—N′-(2,2-dimethylpropylidene)-1-methyl-2,3,4,9-tetrahydropyridino [3,4-b] indol-3-formylhydrazine] | 27.5% | 64.4% | 28.9% | 63.7% | 36.8% | 68.2% | 33.4% | 66.8% | 4.5% | 18.2% | 36.4% | 19.0% | 46.2% | 17.4% | 15.4% | 36.1% | 8.3% | 12.1% | 29.4% | 48.6% | Bactericidal activity (%) Bipolaria maydis (Bipolaria maydis): 20.0%; Bactericidal activity (%) Colletotrichum orbiculare [5]: 24.0%; Armyworm Mortality (%) (armyworms): 25%; Cotton bollworm Mortality (%) (cotton bollworms): 20%; Mosquito larvae Mortality (%) (mosquito larvae): 55%; Corn borer Mortality (%) (corn borers): 30% |
